# Results taken from PMC10481938, “Discovery of new Schistosoma mansoni aspartyl protease inhibitors by structure-based virtual screening” (Memórias do Instituto Oswaldo Cruz, 2023).
# Legend:
# [1] = target: recombinant Schistosoma mansoni cathepsin D-like aspartyl protease 1 (SmCD1) (Schistosoma mansoni, UniProt P91802); test: SmCD1 enzymatic assay (FRET substrate Abz-AIAF/FSRQ-EDDnp); assay type: biochemical; conditions: for inhibition at 10 µM: read-out: Enzymatic activity inhibition (%) SmCD1; for IC50: recombinant SmCD1, pH 3.5, 95% confidence interval in parentheses; for Binding efficiency index (BEI): BEI = pIC50/MW(kDa), from SmCD1 IC50
# Sequence of recombinant Schistosoma mansoni cathepsin D-like aspartyl protease 1 (SmCD1) (P91802 entry or part of it): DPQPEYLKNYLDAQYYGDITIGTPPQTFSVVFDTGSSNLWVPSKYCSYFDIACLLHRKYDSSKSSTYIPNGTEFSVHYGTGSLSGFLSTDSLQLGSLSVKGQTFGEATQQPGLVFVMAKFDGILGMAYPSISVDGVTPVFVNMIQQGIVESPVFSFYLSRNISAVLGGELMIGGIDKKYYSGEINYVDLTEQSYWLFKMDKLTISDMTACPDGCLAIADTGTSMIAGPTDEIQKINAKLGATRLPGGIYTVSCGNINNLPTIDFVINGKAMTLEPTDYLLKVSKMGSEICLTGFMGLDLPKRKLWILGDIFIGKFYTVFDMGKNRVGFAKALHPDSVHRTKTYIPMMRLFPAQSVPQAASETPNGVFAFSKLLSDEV
# Description: SmCD1 cloning, expression and purification - Expression of the recombinant enzyme was previously performed by our group[14] by transfection of the vector with recombinant proSmCD1 gene (proSmCD1r) into culture bottles containing human embryonic kidney (HEK293) cells. After an incubation period of three to five days, the culture medium of the HEK293 cells was collected, filtered, and used for the purification of the recombinant protein. A HisTrap FF column in-tandem with a HiLoad 16/60 Superdex column, connected to an Äkta Xpress system were used for the purification of the protein.
# (§1) SmCD1 enzymatic assay - Initially, 2.5 μg of SmCD1 was added to a reaction medium containing 50 mM sodium acetate buffer with 50 mM NaCl at pH 3.5. […] After incubation, to start the reaction, 10 μM of the substrate octapeptide fluorescent (FRET) Abz-AIAF/FSRQ-EDDnp (102023-1, GenOne) was added to the medium. The substrate hydrolysis reaction product was continuously detected (λex = 310 nm and λem = 420 nm), using a Flex Station III microplate reader (Molecular Devices), during the initial 10 min of the reaction.
# (§2) All enzymatic assays in this work were performed as described above, and repeated at least three times, each condition in triplicate. In tests involving screening of compounds, the percentage of inhibition of enzymatic activity was calculated considering the mean of the negative control as 100% activity.
# (§3) Determination of IC 50 values - For IC50 (inhibitor concentration in which the enzymatic activity is reduced by 50%) determination assays, serial dilutions of the inhibitors were performed, ranging from 1 µM to 500 µM. The IC50 values were determined by fitting SmCD1 activity data into the 4-parameter logistic equation.
# [2] = system: adult worm aqueous extract (AWAE) aspartic protease activity; test: AWAE aspartic protease activity assay; assay type: biochemical, Schistosoma mansoni; conditions: for Enzymatic activity inhibition (%) AWAE: 10 μM of compound, average of triplicate of single experiment, CV% in parentheses; for IC50: aspartic protease activity of adult worm aqueous extract, with 5 µM E-64, 95% confidence interval in parentheses
# Description: Preparation of adult worm aqueous extract (AWAE) - The extract was prepared from the homogenisation of 1 mL of worms, containing both male and female, in 5 mL of phosphate buffered saline (PBS) + 1% CHAPS, at pH 7.4, using a Turrax disperser. This volume of parasites is roughly equivalent to 20 adult parasites. The homogenate was centrifuged at 20,000 g for 1 hour at 4 °C, and the supernatant stored at -80 °C. An aliquot was used for the protein dosing by the Lowry method (DC^TM protein assay - BIO-RAD).
# […] In tests involving screening of compounds, the percentage of inhibition of enzymatic activity was calculated considering the mean of the negative control as 100% activity.
# (§4) AWAE aspartic protease activity assay - For assaying the aspartyl protease activity present in the AWAE, the same protocol described above for SmCD1 was followed, except for 20 µg of total proteins present in AWAE were added instead of the recombinant SmCD1 enzyme. Additionally, 5 µM of E-64, an inhibitor of cysteinyl proteases, was added to prevent enzymes of this class present in the AWAE[15] to also contribute to substrate hydrolysis on the acidic pH of the assay.
# as §3
# [3] = target: T1, porcine pepsin (Sus scrofa, UniProt P00791); test: Specificity assay toward porcine pepsin; assay type: biochemical; conditions: for inhibition at 10 µM: 10 μM of compound, average of triplicate of single experiment, CV% in parentheses, read-out: Enzymatic activity inhibition (%) Pepsin; for IC50: porcine pepsin, 95% confidence interval in parentheses
# T1 construct: purchased Difco 0151-17 / 215110
# T1 sequence (P00791 60-385): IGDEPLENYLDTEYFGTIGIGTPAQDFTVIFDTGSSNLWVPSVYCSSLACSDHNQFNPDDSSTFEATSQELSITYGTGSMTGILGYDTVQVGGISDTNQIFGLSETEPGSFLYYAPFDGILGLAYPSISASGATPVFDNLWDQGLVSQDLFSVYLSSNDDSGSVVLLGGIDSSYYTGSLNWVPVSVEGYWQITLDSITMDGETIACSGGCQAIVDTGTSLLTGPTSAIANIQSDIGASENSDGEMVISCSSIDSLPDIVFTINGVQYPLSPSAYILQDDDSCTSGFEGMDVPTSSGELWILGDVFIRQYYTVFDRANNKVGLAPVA
# Description: as §1
# (§5) Specificity assays toward mammalian proteases - For recombinant BtCD and porcine pepsin, the same protocol described above for SmCD1 was followed, except for 10 μg of BtCD or 5 μg of pepsin were added.
# The IC50 values were determined by fitting SmCD1 activity data into the 4-parameter logistic equation.
# [4] = system: aspartic protease activity (porcine pepsin, SmCD1, AWAE); test: Aspartic protease inhibition screening of 50 putative hits (hit criterion); assay type: biochemical; conditions: 10 µM, SmCD1 or AWAE
# Description: as §1, §2, §4, §5
# The AWAE assay captures the combined activities of all SmAPs present in schistosome adult worms, while excluding the concurrent cysteinyl protease activity, due the addition of the broad-spectrum E-64 inhibitor.
# [5] = system: WSS-1 cells; test: Cytotoxicity assay on human WSS-1 cells (resazurin); assay type: cell-based; conditions: 48 h
# Description: Cytotoxicity assays on human WSS-1 cells - The cytotoxicity of compounds 5, 19 and 50 was evaluated against normal epithelial cells derived from human kidney (WSS-1, ATCC™ CRL-2029). Cells were seeded in 96-well plates, at 5x10^4 cells/mL, in DMEM high glucose medium supplemented with 10% foetal bovine serum (FBS). After adherence period of 24 h, at 37 °C and 5% CO2, the cells were treated with compounds at 10 µM or 100 μM concentrations and incubated for 44 h. After this time, resazurin solution was added to cells culture, at a final concentration of 0.01 mg/mL. The cells returned to the incubator for another 4 h to complete 48 h total incubation time.[50]
# Fluorescence readings of resorufin (λex = 560 nm, λem = 590 nm) were taken immediately (F0) and 4 hours (F4) after resazurin addition, using Flex Station III. The percentage of viable cells at the end of the experiment, that is, after compounds exposure for 48h, was calculated as follows: […]
# <mml:math><mml:mi>V</mml:mi><mml:mi>i</mml:mi><mml:mi>a</mml:mi><mml:mi>b</mml:mi><mml:mi>l</mml:mi><mml:mi>e</mml:mi><mml:mi> </mml:mi><mml:mi>c</mml:mi><mml:mi>e</mml:mi><mml:mi>l</mml:mi><mml:mi>l</mml:mi><mml:mi>s</mml:mi><mml:mo>=</mml:mo><mml:mfrac><mml:mrow><mml:mi>F</mml:mi><mml:mn>4</mml:mn><mml:mo>-</mml:mo><mml:mi>F</mml:mi><mml:mn>0</mml:mn><mml:mi mathvariant="normal"> </mml:mi><mml:mi mathvariant="normal">t</mml:mi><mml:mi mathvariant="normal">r</mml:mi><mml:mi mathvariant="normal">e</mml:mi><mml:mi mathvariant="normal">a</mml:mi><mml:mi mathvariant="normal">t</mml:mi><mml:mi mathvariant="normal">e</mml:mi><mml:mi mathvariant="normal">d</mml:mi></mml:mrow><mml:mrow><mml:mi>F</mml:mi><mml:mn>4</mml:mn><mml:mo>-</mml:mo><mml:mi>F</mml:mi><mml:mn>0</mml:mn><mml:mi mathvariant="normal"> </mml:mi><mml:mi mathvariant="normal">c</mml:mi><mml:mi mathvariant="normal">o</mml:mi><mml:mi mathvariant="normal">n</mml:mi><mml:mi mathvariant="normal">t</mml:mi><mml:mi mathvariant="normal">r</mml:mi><mml:mi mathvariant="normal">o</mml:mi><mml:mi mathvariant="normal">l</mml:mi></mml:mrow></mml:mfrac><mml:mi mathvariant="normal"> </mml:mi><mml:mi mathvariant="normal">x</mml:mi><mml:mi mathvariant="normal"> </mml:mi><mml:mn>100</mml:mn><mml:mi mathvariant="normal"> </mml:mi></mml:math>
# [6] = system: adult S. mansoni worms; test: Schistosoma mansoni adult worms ex vivo motility assay; assay type: cell-based; conditions: 10 µM; for killing of adult worms ex vivo (judged by worm motility): up to 72 h, male and female adult worms; for effect on female worms motility: late incubation times (48 or 72 h), female adult worms
# Description: Schistosoma mansoni adult worms ex vivo assay - The effect of 10 µM of the test compounds or PZQ (positive control) on adult S. mansoni worms motility for up to 72 h of incubation at 37 °C and 5% CO2 was evaluated by a high content assay previously developed by our group.[50] Image analysis was carried out in a customised pipeline of the open-source Cellprofiler software v. 4.2.1[51] and consisted of quantifying parasites area (Area measurement of MeasureObjectSizeShape module) and its displacement over pairs of consecutive images (false negative rate measurement of MeasureObjectOverlap module). […] The effects of the experimental treatments on parasites motility were estimated from this model by the integrated nested laplace approximation (INLA) method available in INLA package of R (https://www.r-inla.org). The results were expressed as percentual relative motility considering the estimated effect of the negative control group (0.2% DMSO) for each incubation time as 100%.
# [7] = target: T2, bovine cathepsin D (BtCD) (Bos taurus, UniProt P80209); test: Specificity assay toward bovine cathepsin D (BtCD); assay type: biochemical
# T2 construct: purchased Sigma-Aldrich C3138
# T2 sequence (P80209 45-390): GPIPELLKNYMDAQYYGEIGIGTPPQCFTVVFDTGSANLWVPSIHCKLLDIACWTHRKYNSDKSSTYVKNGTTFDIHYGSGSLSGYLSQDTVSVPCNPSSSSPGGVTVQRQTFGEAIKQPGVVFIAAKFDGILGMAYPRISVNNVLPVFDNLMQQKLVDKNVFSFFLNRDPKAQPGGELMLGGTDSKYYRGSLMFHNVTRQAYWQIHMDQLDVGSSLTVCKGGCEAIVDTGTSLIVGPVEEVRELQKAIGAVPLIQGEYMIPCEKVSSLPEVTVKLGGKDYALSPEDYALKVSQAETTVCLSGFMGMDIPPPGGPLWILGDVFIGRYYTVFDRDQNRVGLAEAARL
# Description: as §1, §5
# [8] = up to tested concentration 500 μM
Molecule,inhibition at 10 µM [1],IC50 [1],Enzymatic activity inhibition (%) AWAE [2],IC50 [2],inhibition at 10 µM [3],IC50 [3],inhibition of any of the aspartic protease activity (considered active) [4],Binding efficiency index (BEI) [1],cytotoxicity against WSS-1 cells ([5]; 10 µM),cytotoxicity against WSS-1 cells ([5]; up to 100 µM),killing of adult worms ex vivo (judged by worm motility) [6],"inhibition at 500 µM ([7]; highest concentration evaluated, 500 μM (solubility limitation))",IC50 ([7]; inferred from less than 50% inhibition at 500 μM),effect on female worms motility [6],"inhibition against SmCD1 [1, 8]","inhibition against pepsin [3, 8]",decrease of WSS-1 cell viability ([5]; 100 µM)
Cc1ccc(C(C)(C)C)c(OCCCNCCN)c1 [Compound 12],-10.5%,> 500 µM,32.0 (11) %,315 µM,-3.5%,231 µM,≥ 25%,–,–,–,–,–,–,–,–,–,–
"Cc1cccc(NC(=O)CSc2ncnc3sc4c(c23)CCC(C)C4)c1 (centres unmarked) [Compound 19, 2-((7-methyl-5,6,7,8-tetrahydrobenzo[4,5]thieno[2,3-d]pyrimidin-4-yl)thio)-N-(m-tolyl)acetamide]",-15.3%,102 µM,9.20 (12) %,> 500 µM,42.4%,23.1 µM,≥ 25%,10.4,neither cytotoxic,non-toxic,nor could kill adult worms,–,–,–,–,–,–
CCn1c2ccccc2c2cc(NC(=O)CSC3=C(C#N)C(c4ccccc4F)CC(=O)N3)ccc21 (centres unmarked) [Compound 22],1.8%,> 500 µM,16.0 (15) %,> 500 µM,25.4%,38 µM,≥ 25%,–,–,–,–,–,–,–,–,–,–
O=C(CSc1nc2cc([N+](=O)[O-])ccc2[nH]1)Nc1ccc(F)c(F)c1 [Compound 1],0.4%,> 500 µM,–,> 500 µM,5.6%,> 500 µM,≥ 25%,–,–,–,–,–,–,–,–,–,–
"Cc1cccc(NS(=O)(=O)c2ccc3[nH]c(=O)c(=O)[nH]c3c2)c1 [Compound 5, 2,3-dioxo-N-(m-tolyl)-1,2,3,4-tetrahydroquinoxaline-6-sulfonamide]",24.3%,83.6 µM,23.0 (14) %,135 µM,44.2%,92.6 µM,≥ 25%,12.3,neither cytotoxic,non-toxic,nor could kill adult worms,≤ 45%,> 500 µM,slight decrease,–,–,–
pepstatin A [reference compound],–,–,98.7 (7) %,–,–,–,–,–,–,–,–,–,–,–,–,–,–
N=C(Nc1ccccc1)Nc1nc(=O)cc(CSc2nc3ccccc3s2)[nH]1 [Compound 32],12.2%,> 500 µM,–,> 500 µM,34.7%,72.5 µM,≥ 25%,–,–,–,–,–,–,–,–,–,–
Fc1ccc(-c2ccc(CNCCOc3ccccn3)o2)cc1Cl [Compound 50],3.4%,> 500 µM,34.5 (8) %,77.7 µM,10.5%,> 500 µM,≥ 25%,–,neither cytotoxic and safe,–,nor could kill adult worms,–,–,slight decrease,not showing significant inhibition,not showing significant inhibition,more than 90%
